Source: US6417359B1, “Pharmaceutical compositions and methods for use” (priority 1998, dated 2002)

What was measured:
[1] = molecular target: nicotinic receptors associated with dopamine release; assay: Dopamine release (receptor activation/inhibition); assay type: biochemical; conditions: for Emax, dopamine release: amount released relative to (S)-(−)-nicotine
Protocol: Determination of Receptor Activation/Inhibition and Dopamine Release
Dopamine release was measured using the techniques described in U.S. Pat. No. 5,597,919 to Dull et al. Release is expressed as a percentage of release obtained with a concentration of (S)-(−)-nicotine resulting in maximal effects. Reported EC50 values are expressed in nM, and Emax values represent the amount released relative to (S)-(−)-nicotine or tetramethylammonium ion (TMA), on a percentage basis.
Reported IC50 values are expressed in nM and represent the concentration resulting in 50% inhibition of agonist induced receptor activation. Emax values represent the amount released relative to (S)-(−)-nicotine on a percentage basis.

muscle-type receptors = muscle-type receptors (Homo sapiens, UniProt P02708+P07510+P11230+Q07001); assay: Determination of interaction with muscle receptors; assay type: cell-based; conditions: percentage of maximal activation induced by (S)-(−)-nicotine
Protocol: Determination of Interaction with Muscle Receptors
(§1) The determination of the interaction of the compounds with muscle receptors was carried out in accordance with the techniques described in U.S. Pat. No. 5,597,919 to Dull et al. The maximal activation for individual compounds (Emax) was determined as a percentage of the maximal activation induced by (S)-(−)-nicotine. Reported Emax values represent the amount released relative to (S)-(−)-nicotine on a percentage basis.

ganglia-type receptors = assay: Determination of interaction with ganglion receptors; assay type: cell-based; conditions: percentage of maximal activation induced by (S)-(−)-nicotine
Protocol: as §1, with “Determination of Interaction with Ganglion Receptors The determination” for “The determination”, “compounds with ganglionic receptors was” for “compounds with muscle receptors was”

Sequence of muscle-type receptors (P02708 whole entry): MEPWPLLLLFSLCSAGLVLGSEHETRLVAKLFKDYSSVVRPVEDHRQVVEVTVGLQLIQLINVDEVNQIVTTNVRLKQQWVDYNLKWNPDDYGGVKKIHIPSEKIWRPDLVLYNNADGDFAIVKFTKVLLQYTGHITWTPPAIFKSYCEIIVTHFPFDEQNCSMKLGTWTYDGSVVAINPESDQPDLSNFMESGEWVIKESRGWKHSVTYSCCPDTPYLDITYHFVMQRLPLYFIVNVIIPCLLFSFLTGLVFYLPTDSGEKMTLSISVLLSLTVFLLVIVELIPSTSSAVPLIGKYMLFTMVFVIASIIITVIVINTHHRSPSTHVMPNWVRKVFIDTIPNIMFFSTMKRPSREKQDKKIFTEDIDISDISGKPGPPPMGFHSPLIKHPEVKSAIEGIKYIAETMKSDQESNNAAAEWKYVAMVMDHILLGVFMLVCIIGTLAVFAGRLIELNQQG
Sequence of muscle-type receptors (P11230 24-501): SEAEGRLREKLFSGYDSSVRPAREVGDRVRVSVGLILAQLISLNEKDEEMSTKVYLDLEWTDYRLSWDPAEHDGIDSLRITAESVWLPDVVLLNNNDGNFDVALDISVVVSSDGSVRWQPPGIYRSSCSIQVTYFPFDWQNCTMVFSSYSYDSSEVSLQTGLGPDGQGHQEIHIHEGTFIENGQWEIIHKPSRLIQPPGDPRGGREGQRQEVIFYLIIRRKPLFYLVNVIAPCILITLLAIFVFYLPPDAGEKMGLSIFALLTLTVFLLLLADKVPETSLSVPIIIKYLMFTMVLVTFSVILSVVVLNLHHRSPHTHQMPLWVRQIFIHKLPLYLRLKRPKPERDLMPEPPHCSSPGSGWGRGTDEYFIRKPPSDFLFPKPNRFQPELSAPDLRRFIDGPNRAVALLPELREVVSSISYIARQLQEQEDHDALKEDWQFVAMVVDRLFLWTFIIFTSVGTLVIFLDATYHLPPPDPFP
Sequence of muscle-type receptors (P07510 23-517): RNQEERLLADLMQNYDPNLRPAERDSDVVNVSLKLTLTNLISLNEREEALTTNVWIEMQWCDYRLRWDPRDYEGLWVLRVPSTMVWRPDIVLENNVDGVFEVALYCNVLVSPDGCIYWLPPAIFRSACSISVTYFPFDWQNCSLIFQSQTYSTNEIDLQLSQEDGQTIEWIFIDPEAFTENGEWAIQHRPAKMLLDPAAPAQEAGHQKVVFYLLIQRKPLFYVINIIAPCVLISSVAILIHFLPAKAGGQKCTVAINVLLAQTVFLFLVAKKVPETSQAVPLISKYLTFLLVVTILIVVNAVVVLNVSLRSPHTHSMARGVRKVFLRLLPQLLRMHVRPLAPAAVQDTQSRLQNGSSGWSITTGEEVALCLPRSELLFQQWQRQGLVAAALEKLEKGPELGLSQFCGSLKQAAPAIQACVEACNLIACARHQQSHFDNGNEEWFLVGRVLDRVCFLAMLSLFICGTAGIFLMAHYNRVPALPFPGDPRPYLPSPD
Sequence of muscle-type receptors (Q07001 22-517): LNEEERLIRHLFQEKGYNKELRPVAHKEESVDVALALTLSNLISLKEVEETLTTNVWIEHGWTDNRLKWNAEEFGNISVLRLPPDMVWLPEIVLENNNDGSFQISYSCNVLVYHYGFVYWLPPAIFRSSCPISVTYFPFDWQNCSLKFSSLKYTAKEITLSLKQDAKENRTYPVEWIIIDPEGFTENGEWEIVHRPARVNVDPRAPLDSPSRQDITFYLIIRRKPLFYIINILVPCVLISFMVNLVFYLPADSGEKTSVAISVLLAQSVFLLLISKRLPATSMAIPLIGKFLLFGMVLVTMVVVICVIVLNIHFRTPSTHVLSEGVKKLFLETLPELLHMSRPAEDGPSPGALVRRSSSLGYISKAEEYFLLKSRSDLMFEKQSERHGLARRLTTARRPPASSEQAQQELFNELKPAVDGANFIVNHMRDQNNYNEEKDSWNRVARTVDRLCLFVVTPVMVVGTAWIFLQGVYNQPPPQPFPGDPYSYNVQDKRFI

## CCOc1cncc(C2C3CC4CC(C3)CN2C4)c1 (centres unmarked) [Sample No. 4, 1-aza-2-[5-ethoxy-(3-pyridyl)]-tricyclo-[3.3.1.1^3,7]decane]
[1]
  EC50: > 100 µM
  Emax, dopamine release: 0%
[1]; concentration resulting in 50% inhibition of agonist induced receptor activation
  IC50: 0.846 µM
muscle-type receptors
  Emax: 22%
ganglia-type receptors
  Emax at ganglia-type receptors: 0%

## CC(C)Oc1cncc(C2C3CC4CC(C3)CN2C4)c1 (centres unmarked) [Sample No. 5, 1-aza-2-[5-isopropoxy-(3-pyridyl)]tricyclo[3.3.1.1^3,7]decane]
[1]
  EC50: > 100 µM
  Emax, dopamine release: 0%
muscle-type receptors
  Emax: 114%
ganglia-type receptors
  Emax at ganglia-type receptors: 7%

## c1cncc(C2C3CC4CC(C3)CN2C4)c1 (centres unmarked) [Sample No. 1, 1-aza-2-(3-pyridyl)-tricyclo[3.3.1.1^3,7]decane]
[1]
  Emax, dopamine release: 0%
muscle-type receptors
  Emax: 21%
ganglia-type receptors
  Emax at ganglia-type receptors: 27%

## Cl.Cl.Cl.Nc1cncc(C2C3CC4CC(C3)CN2C4)c1 (centres unmarked) [Sample No. 3, 1-aza-2-[5-amino-(3-pyridyl)]tricyclo[3.3.1.1^3,7]decane trihydrochloride]
[1]
  EC50: > 100 µM
  Emax, dopamine release: 0%
muscle-type receptors
  Emax: 75%
ganglia-type receptors
  Emax at ganglia-type receptors: 17%

## Brc1cncc(C2C3CC4CC(C3)CN2C4)c1 (centres unmarked) [Sample No. 2, 1-aza-2-[5-bromo(3-pyridyl)]tricyclo[3.3.1.1^3,7]decane]
[1]
  EC50: > 100 µM
  Emax, dopamine release: 0%
muscle-type receptors
  Emax: 32%
ganglia-type receptors
  Emax at ganglia-type receptors: 50%
